SMILES strings stand for the structures.

IC50 data for 14 molecules are collected here from patent publication US20100056563A1, “NOVEL 1.8-NAPHTHYRIDINE COMPOUNDS” (priority 2007, published 2010).

The assay deals with T1, FLAG-tagged full length PHD2 (Homo sapiens, UniProt Q9GZT9).
T1 construct: FLAG-tagged full length PHD2; FLAG; made in house; host or cells: baculovirus-infected Sf9 cells
T1 sequence (Q9GZT9 whole entry): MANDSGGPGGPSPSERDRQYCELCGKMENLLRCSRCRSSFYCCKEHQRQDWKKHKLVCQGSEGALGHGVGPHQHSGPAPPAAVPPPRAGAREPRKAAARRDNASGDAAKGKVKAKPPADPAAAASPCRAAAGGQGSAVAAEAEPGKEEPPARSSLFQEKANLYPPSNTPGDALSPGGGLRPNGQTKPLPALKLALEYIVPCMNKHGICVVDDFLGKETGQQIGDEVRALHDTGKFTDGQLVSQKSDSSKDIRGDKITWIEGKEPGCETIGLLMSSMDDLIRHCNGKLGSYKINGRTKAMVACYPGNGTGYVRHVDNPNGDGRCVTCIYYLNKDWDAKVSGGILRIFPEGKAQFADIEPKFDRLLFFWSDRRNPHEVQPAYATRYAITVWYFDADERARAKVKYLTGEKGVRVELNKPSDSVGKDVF
The assay can be described thus: HIF-PHD2 time resolved fluorescence inhibition assay (HIF-1α peptide hydroxylation, VHL complex detection). Format: biochemical. To be noted: 0.2 μM 2-oxoglutarate, 0.5 μM HIF-1α peptide, 2 hr at room temperature. The procedure: To each well of a 96-well plate was added […] of test compound in DMSO and 20 μl of assay buffer (50 mM Tris pH 7.4/0.01% Tween-20/0.1 mg/ml bovine serum albumin/10 μM ferrous sulfate/1 mM sodium ascorbate/20 μg/ml catalase) containing 0.15 μg/ml FLAG-tagged full length PHD2 expressed in and purified from baculovirus-infected Sf9 cells. After a […] preincubation at room temperature, the enzymatic reactions were initiated by the addition of 4 μL of substrates (final concentrations of 0.2 μM 2-oxoglutarate and 0.5 μM HIF-1α peptide biotinyl-DLDLEMLAPYIPMDDDFQL). After 2 hr at room temperature, the reactions were terminated and signals were developed by the addition of a 25 μL quench/detection mix to a final concentration of 1 mM ortho-phenanthroline, 0.1 mM EDTA, 0.5 nM anti-(His)6 LANCE reagent (Perkin-Elmer Life Sciences), 100 nM AF647-labeled streptavidin (Invitrogen), and 2 μg/ml (His)6-VHL complex (S. Tan (2001) Protein Expr. Purif. 21, 224-234). The ratio of time resolved fluorescence signals at 665 and 620 nm was determined, and percent inhibition was calculated relative to an uninhibited control sample run in parallel.
The term IC50 denotes the point on the concentration scale where inhibition reaches its midpoint. A high value points to weaker potency in that assay. The molecule `O=C(O)CNC(=O)c1c(O)c2cccnc2n(Cc2ccc(C(F)(F)F)cc2)c1=O` [Example 1, N-({4-Hydroxy-2-oxo-1-[4-(trifluoromethyl)benzyl]-1,2-dihydro-1,8-naphthyridin-3-yl}carbonyl)glycine] showed an IC50 of 2.1 nM.

`O=C(O)CNC(=O)c1c(O)c2cccnc2n(Cc2ccc(Cl)cc2)c1=O` [Example 2, N-{[1-(4-Chlorobenzyl)-4-hydroxy-2-oxo-1,2-dihydro-1,8-naphthyridin-3-yl]carbonyl}glycine] had an IC50 of 1.6 nM.

`O=C(O)CNC(=O)c1c(O)c2cccnc2n(Cc2ccc(Br)cc2)c1=O` [Example 3, N-{[1-(4-Bromobenzyl)-4-hydroxy-2-oxo-1,2-dihydro-1,8-naphthyridin-3-yl]carbonyl}glycine] displayed an IC50 of 1.9 nM.

`N#Cc1ccc(Cn2c(=O)c(C(=O)NCC(=O)O)c(O)c3cccnc32)cc1` [Example 4, N-{[1-(4-Cyanobenzyl)-4-hydroxy-2-oxo-1,2-dihydro-1,8-naphthyridin-3-yl]carbonyl}glycine]: it took 1.6 nM to reach half-maximal inhibition (IC50).

Turning to `Cc1ccc(Cn2c(=O)c(C(=O)NCC(=O)O)c(O)c3cccnc32)cc1` [Example 5, N-{[1-(4-Methylbenzyl)-4-hydroxy-2-oxo-1,2-dihydro-1,8-naphthyridin-3-yl]carbonyl}glycine], half-maximal inhibition (IC50) was put at 1.8 nM.

Turning to `O=C(O)CNC(=O)c1c(O)c2cccnc2n(Cc2ccc(C(F)(F)F)cc2F)c1=O` [Example 6, N-{[1-(2-Fluoro-4-trifluoromethylbenzyl)-4-hydroxy-2-oxo-1,2-dihydro-1,8-naphthyridin-3-yl]carbonyl}glycine], the IC50 amounted to 1.6 nM.

With `COc1ccc2c(O)c(C(=O)NCC(=O)O)c(=O)n(Cc3ccc(C(F)(F)F)cc3)c2n1` [Example 7, N-({4-Hydroxy-7-methoxy-2-oxo-1-[4-(trifluoromethyl)benzyl]-1,2-dihydro-1,8-naphthyridin-3-yl}carbonyl)glycine], the IC50 amounted to 1.5 nM.

Molecule `O=C(O)CNC(=O)c1c(O)c2cccnc2n(Cc2nc3ccccc3s2)c1=O` [Example 8, N-{[1-(1,3-Benzothiazol-2-ylmethyl)-4-hydroxy-2-oxo-1,2-dihydro-1,8-naphthyridin-3-yl]carbonyl}glycine] had an IC50 of 0.7 nM.

The molecule `O=C(O)CNC(=O)c1c(O)c2cc(I)cnc2n(Cc2ccc(C(F)(F)F)cc2)c1=O` [Example 9, N-({4-Hydroxy-6-iodo-2-oxo-1-[4-(trifluoromethyl)benzyl]-1,2-dihydro-1,8-naphthyridin-3-yl}carbonyl)glycine] yielded an IC50 of 1.3 nM.

The molecule `N#Cc1cnc2c(c1)c(O)c(C(=O)NCC(=O)O)c(=O)n2Cc1ccc(C(F)(F)F)cc1` [Example 10, N-({6-Cyano-4-hydroxy-2-oxo-1-[4-(trifluoromethyl)benzyl]-1,2-dihydro-1,8-naphthyridin-3-yl}carbonyl)glycine] returned an IC50 of 1.2 nM.

`C[C@H](NC(=O)c1c(O)c2cccnc2n(Cc2ccc(C(F)(F)F)cc2)c1=O)C(=O)O` [Example 11, N-({4-Hydroxy-2-oxo-1-[4-(trifluoromethyl)benzyl]-1,2-dihydro-1,8-naphthyridin-3-yl}carbonyl)-L-alanine] registered an IC50 of 6 nM.

`C[C@@H](NC(=O)c1c(O)c2cccnc2n(Cc2ccc(C(F)(F)F)cc2)c1=O)C(=O)O` [Example 12, N-({4-Hydroxy-2-oxo-1-[4-(trifluoromethyl)benzyl]-1,2-dihydro-1,8-naphthyridin-3-yl}carbonyl)-D-alanine] had an IC50 of 1100 nM.

Regarding `NC(=O)c1ccc(Cn2c(=O)c(C(=O)NCC(=O)O)c(O)c3cccnc32)cc1` [Example 13, N-({1-[4-(Aminocarbonyl)benzyl]-4-hydroxy-2-oxo-1,2-dihydro-1,8-naphthyridin-3-yl}carbonyl)glycine], the midpoint of inhibition, the IC50, lay at 1.2 nM.

With `O=C(N[C@@H](CO)C(=O)O)c1c(O)c2cccnc2n(Cc2ccc(C(F)(F)F)cc2)c1=O` [Example 14, N-({1-[4-(trifluoromethyl)benzyl]-4-hydroxy-2-oxo-1,2-dihydro-1,8-naphthyridin-3-yl}carbonyl)-L-serine], the IC50 was 160 nM.
